From patent publication US9399635B2, “Pyrazole derivative” (GREEN TECH CO., LTD., priority 2011, dated 2016)

| Structure (SMILES) | melting point |
| --- | --- |
| COc1cc(OCc2cccnc2)ccc1/C=C/c1cc(/C=C/c2c[nH]c3ccccc23)[nH]n1 [Example 42, 3-[(1E)-2-(1H-indol-3-yl)ethenyl]-5-[(1E)-2-[2-methoxy-4-(3-pyridylmethoxy)phenyl]ethenyl]-1H-pyrazole] | 129 to 137 °C |
| COc1cc(OCc2ccncc2)ccc1/C=C/c1cc(/C=C/c2c[nH]c3ccccc23)[nH]n1 [Example 43, 3-[(1E)-2-(1H-indol-3-yl)ethenyl]-5-[(1E)-2-[2-methoxy-4-(4-pyridylmethoxy)phenyl]ethenyl]-1H-pyrazole] | 128 to 139 °C |
| COc1ccc(/C=C/c2cc(/C=C/c3c[nH]c4ccccc34)[nH]n2)cc1OCc1ccccn1 [Example 12, 3-[(1E)-2-(1H-indol-3-yl)ethenyl]-5-[(1E)-2-[4-methoxy-3-(2-pyridylmethoxy)phenyl]ethenyl]-1H-pyrazole] | 232 to 243 °C |
| COc1cc(OCc2ccncc2)ccc1/C=C/c1cc(/C=C/c2cccc3[nH]ccc23)[nH]n1 [Example 49, 3-[(1E)-2-(1H-indol-4-yl)ethenyl]-5-[(1E)-2-[2-methoxy-4-(4-pyridylmethoxy)phenyl]ethenyl]-1H-pyrazole] | 207 to 215 °C |
| C(=C\c1cc(/C=C/c2ccc3[nH]ccc3c2)[nH]n1)/c1ccc(OCc2ccccn2)cc1 [Example 4, 3-[(1E)-2-(1H-indol-5-yl)ethenyl]-5-[(1E)-2-[4-(2-pyridylmethoxy)phenyl]ethenyl]-1H-pyrazole] | 95 to 102 °C |
| COc1cc(OCc2ccccn2)ccc1/C=C/c1cc(/C=C/c2c[nH]c3ccccc23)[nH]n1 [Example 38, 3-[(1E)-2-(1H-indol-3-yl)ethenyl]-5-[(1E)-2-[2-methoxy-4-(2-pyridylmethoxy)phenyl]ethenyl]-1H-pyrazole] | 112 to 116 °C |

The next lines start with the values.

| melting point | Structure (SMILES) |
| --- | --- |
| 189 to 195 °C | COc1ccc2[nH]cc(/C=C/c3cc(/C=C/c4ccc(OCc5ccccn5)cc4OC)n[nH]3)c2c1 [Example 100, 3-[(1E)-2-(5-methoxy-1H-indol-3-yl)ethenyl]-5-[(1E)-2-[2-methoxy-4-(2-pyridylmethoxy)phenyl]ethenyl]-1H-pyrazole] |
| 260 to 268 °C | CS(=O)(=O)c1ccc(/C=C/c2cc(/C=C/c3ccc4cc[nH]c4c3)[nH]n2)cc1 [Example 57, 3-[(1E)-2-(1H-indol-6-yl)ethenyl]-5-[(1E)-2-[4-(methanesulfonyl)phenyl]ethenyl]-1H-pyrazole] |
| 201 to 204 °C | CCN(CC)c1ccc(/C=C/c2cc(/C=C/c3ccc4cc[nH]c4c3)[nH]n2)cc1 [Example 106, 3-[(1E)-2-(4-diethylaminophenyl)ethenyl]-5-[(1E)-2-(1H-indol-6-yl)ethenyl]-1H-pyrazole] |
| 120 to 124 °C | CN1CCN(c2ccc(/C=C/c3cc(/C=C/c4ccc5cc[nH]c5c4)[nH]n3)c(Br)c2)CC1 [Example 62, 3-[(1E)-2-[2-bromo-4-(4-methylpiperazin-1-yl)phenyl]ethenyl]-5-[(1E)-2-(1H-indol-6-yl)ethenyl]-1H-pyrazole] |
| 90 to 96 °C | COCCOc1ccc(/C=C/c2cc(/C=C/c3ccc4cc[nH]c4c3)[nH]n2)c(OC)c1 [Example 66, 3-[(1E)-2-(1H-indol-6-yl)ethenyl]-5-[(1E)-2-[2-methoxy-4-(2-methoxyethoxy)phenyl]ethenyl]-1H-pyrazole] |
| 208 to 212 °C | CC(C)c1ccc(/C=C/c2cc(/C=C/c3ccc4cc[nH]c4c3)[nH]n2)cc1 [Example 78, 3-[(1E)-2-(1H-indol-6-yl)ethenyl]-5-[(1E)-2-(4-isopropylphenyl)ethenyl]-1H-pyrazole] |
| 109 to 112 °C | COc1cc(OCCN(C)C)ccc1/C=C/c1cc(/C=C/c2ccc3cc[nH]c3c2)[nH]n1 [Example 76, 3-[(1E)-2-[4-[2-(dimethylamino)ethoxy]-2-methoxyphenyl]ethenyl]-5-[(1E)-2-(1H-indol-6-yl)ethenyl]-1H-pyrazole] |
